Where “and” joins values, the source holds several entries; their conditions need not be identical. Equal entries are not always repeated.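 Briefly, cells in 96-well plates were exposed to five compound concentrations for 48 h, and endpoints were estimated by linear interpolation. At the GI50, growth is halved. Definition used: TGI = concentration required for complete inhibition of growth.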 Calls of active or inactive are those of the source. Rule as the data show it: active = GI50 below about 0.43 µM; inactive = the rest.

The first test deals with MDA-N. Kind of test: NCI-60 cell line screen, 48 h.
For `NCC(Cc1ccccc1)P(=O)(O)O` (configuration not stated), the TGI was more than 100 µM.

`CCOC(=O)n1c2ccccc2c(=O)n1CCO` registered a TGI of more than 100 µM.

On to `O=[N+]([O-])c1ccc(/C=C\c2ccc3c(c2)OCO3)c([N+](=O)[O-])c1`, for which the TGI came out at 22.4 µM.

Turning to `O=C(Nc1ccc(Cl)c(C(F)(F)F)c1)C(=O)c1c(O)c2ccccc2oc1=O`, the TGI was more than 100 µM.

Consider `N=C(N)c1ccc(OCCCCCOc2ccc(C(=N)N)cc2)cc1`, for which the TGI is 26.5 µM and 36 µM.

As to `COC(=O)[C@]1(C)CCCC2(C)C3=C(CCC21)CC1(CC3)SCCS1` (some centres not stated), the TGI was more than 10 µM.

`OC1CSCCSCCCSCCSC1`: the TGI was more than 100 µM.

In the case of `O=C(O)Cn1ccc(=O)c2c([N+](=O)[O-])cccc21`, the TGI is more than 100 µM.

`CCC1=C(c2ccc(OC)cc2)CC[C@]2(CCNC2=O)[C@@H]1C`: the TGI came to 58.3 µM.

The test system of the next test is HOP-18 NSCLC. As to the kind of experiment: NCI-60 cell line screen, 48 h.
As to `CC1CCC2c3c([nH]c4ccccc34)C3C(=O)N(c4ccccc4)C(=O)C3C2C1` (configuration not stated), the TGI worked out at 69.9 µM.

The compound `O=S(=O)(Cc1ccccc1)SCc1ccccc1` showed a TGI of 84.3 µM.

Take `CC1=C(C(=O)CC(=O)C(=O)Nc2ccccc2C)Sc2ccccc2N1`: the TGI was more than 100 µM.

In turn, `CC(=O)c1c(O)c2c([nH]c1=O)CCCC2` gave a TGI of more than 100 µM.

For `O=C(O)C1=C(C(=O)O)Oc2ccccc2O1`, the TGI was more than 100 µM.

For `C/C(CC(=O)Nc1cccc(Cl)c1C)=N\N=C(N)N`, the TGI was more than 100 µM.

Take `CN(C)CCNC(=O)c1cccc2cc3ccc4ccccc4c3nc12`: the TGI stood at 0.665 µM.

Turning to `Nc1nc(-c2ccccc2)cc(-c2cc(Cl)ccc2O)n1`, the TGI is more than 100 µM.

`O=C1c2ccoc2C(=O)c2oc(=O)ccc21` displayed a TGI of 36 µM.

For `CC(C)=CC(=O)CC(=O)C(=O)NCCNC(=O)C(=O)CC(=O)C=C(C)C`, the TGI was more than 50 µM.

Turning to `c1ccc2c(c1)[O][Sn][O]2`, the outcome was inactive.

The compound `NC(=O)C(=O)Cc1nc2ccccc2s1` returned a TGI of more than 100 µM.

In turn, `COc1ccc2nc(-c3ccc(O)cc3)ccc2c1` gave a TGI of more than 100 µM.

Take `Cn1cc(NC(=O)c2cc(NC(=O)CCCCCCCC(=O)Nc3cc(C(=O)Nc4cc(C(=O)NCCC(=N)N)n(C)c4)n(C)c3)cn2C)cc1C(=O)NCCC(=N)N`: the TGI is more than 100 µM.

As to `Cc1csc(CCC(N)C(=O)O)n1` (configuration not stated), the TGI was more than 100 µM.

With `CC1(C)CC(O)CC(C)(C)N1.CC1(C)CC(O)CC(C)(C)N1.CC1(C)CC(O)CC(C)(C)N1.CC1(C)CC(O)CC(C)(C)N1.Cl.[Ti]`, the GI50 was more than 100 µM and the TGI is more than 100 µM.

In turn, `CC(C)(C)c1cc(C(OCCl)(C(F)(F)F)C(F)(F)F)c2c(c1)C(C(F)(F)F)(C(F)(F)F)OC21c2ccccc2C(=O)c2ccccc21` yielded a TGI of more than 100 µM.

For the compound `C1=C(c2ccccc2)C(OC2Oc3ccccc3C=C2c2ccccc2)Oc2ccccc21` (configuration not stated), the TGI is more than 100 µM.

Compound `Nc1c(-c2nc3ccccc3s2)[n+]([O-])c2ccccc2[n+]1[O-]` displayed a TGI of 86.2 µM.

Compound `O=C(CCC(=O)C1Cc2ccccc2C1=O)Nc1cccc(C(F)(F)F)c1` (configuration not stated) returned a TGI of more than 100 µM.

With `Nc1c(C(=O)Nc2ccccc2O)[n+]([O-])c2ccccc2[n+]1[O-]`, the TGI is more than 100 µM.

The compound `O=c1c2cccc3cccc(c4n1CCCN=4)c32` yielded a TGI of more than 100 µM.
